Results reported in PubChem BioAssay (NCI).
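48-hour exposure; five concentrations; linearly interpolated endpoints. Here, GI50 denotes the concentration required for 50% inhibition of growth. TGI: total growth inhibition.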

Legend:
Test in all cases: DTP human tumour cell line panel, 48 h
SF-268 CNS = tested on: SF-268 CNS
OVCAR-4 ovarian = tested on: OVCAR-4 ovarian
COLO 205 colon = tested on: COLO 205 colon
TK-10 renal = tested on: TK-10 renal
SK-OV-3 ovarian = tested on: SK-OV-3 ovarian
UACC-62 melanoma = tested on: UACC-62 melanoma
T-47D breast = tested on: T-47D breast
LOX IMVI melanoma = tested on: LOX IMVI melanoma
SK-MEL-2 melanoma = tested on: SK-MEL-2 melanoma
SK-MEL-5 melanoma = tested on: SK-MEL-5 melanoma
BT-549 breast = tested on: BT-549 breast
SK-MEL-28 melanoma = tested on: SK-MEL-28 melanoma
SNB-19 CNS = tested on: SNB-19 CNS
CAKI-1 renal = tested on: CAKI-1 renal
MDA-MB-435 = tested on: MDA-MB-435
UACC-257 melanoma = tested on: UACC-257 melanoma
MCF7 breast = tested on: MCF7 breast
DU-145 prostate = tested on: DU-145 prostate
RPMI-8226 leukemia = tested on: RPMI-8226 leukemia
NCI-H226 lung = tested on: NCI-H226 lung
MOLT-4 leukemia = tested on: MOLT-4 leukemia
UO-31 renal = tested on: UO-31 renal
HS 578T breast = tested on: HS 578T breast
NCI/ADR-RES ovarian = tested on: NCI/ADR-RES ovarian
HT29 colon = tested on: HT29 colon
HL-60(TB) leukemia = tested on: HL-60(TB) leukemia
A549 NSCLC = tested on: A549 NSCLC
CCRF-CEM leukemia = tested on: CCRF-CEM leukemia
U251 CNS = tested on: U251 CNS
SF-295 CNS = tested on: SF-295 CNS
RXF 393 renal = tested on: RXF 393 renal
NCI-H460 lung = tested on: NCI-H460 lung
HCT-15 colon = tested on: HCT-15 colon
HOP-62 NSCLC = tested on: HOP-62 NSCLC
IGROV1 ovarian = tested on: IGROV1 ovarian
SN12C renal = tested on: SN12C renal
SW-620 colon = tested on: SW-620 colon
PC-3 prostate = tested on: PC-3 prostate
HCT-116 colon = tested on: HCT-116 colon
KM12 colon = tested on: KM12 colon
OVCAR-5 ovarian = tested on: OVCAR-5 ovarian
786-0 renal = tested on: 786-0 renal
HCC-2998 colon = tested on: HCC-2998 colon
SF-539 CNS = tested on: SF-539 CNS
NCI-H522 lung = tested on: NCI-H522 lung
OVCAR-3 ovarian = tested on: OVCAR-3 ovarian
NCI-H23 lung = tested on: NCI-H23 lung
MDA-MB-231 breast = tested on: MDA-MB-231 breast
OVCAR-8 ovarian = tested on: OVCAR-8 ovarian
M14 melanoma = tested on: M14 melanoma
SNB-75 CNS = tested on: SNB-75 CNS
K-562 leukemia = tested on: K-562 leukemia
A498 renal = tested on: A498 renal
ACHN renal = tested on: ACHN renal
SR leukemia = tested on: SR leukemia
MALME-3M melanoma = tested on: MALME-3M melanoma
EKVX NSCLC = tested on: EKVX NSCLC
HOP-92 NSCLC = tested on: HOP-92 NSCLC

## CCCCCCCCCCNC(=O)CI
SF-268 CNS
  GI50: 1.86 µM
  TGI: 3.65 µM
OVCAR-4 ovarian
  GI50: 1.87 µM
  TGI: 5.42 µM
COLO 205 colon
  GI50: 2.38 µM
  TGI: 6.01 µM
TK-10 renal
  GI50: 1.76 µM
  TGI: 3.33 µM
SK-OV-3 ovarian
  GI50: 1.89 µM
  TGI: 3.38 µM
UACC-62 melanoma
  GI50: 1.69 µM
  TGI: 3.28 µM
T-47D breast
  GI50: 0.829 µM
  TGI: 2.41 µM
LOX IMVI melanoma
  GI50: < 0.0424 µM
  TGI: 0.104 µM
SK-MEL-2 melanoma
  GI50: 1.94 µM
  TGI: 4.02 µM
SK-MEL-5 melanoma
  GI50: 1.96 µM
  TGI: 4.72 µM
BT-549 breast
  GI50: 1.73 µM
  TGI: 3.35 µM
SK-MEL-28 melanoma
  GI50: 1.95 µM
  TGI: 3.91 µM
SNB-19 CNS
  GI50: 11.2 µM
  TGI: 23.9 µM
CAKI-1 renal
  GI50: 1.56 µM
  TGI: 3.55 µM
MDA-MB-435
  GI50: 1.97 µM
  TGI: 4.51 µM
UACC-257 melanoma
  GI50: 1.63 µM
  TGI: 3.39 µM
MCF7 breast
  GI50: 1.97 µM
  TGI: 4.59 µM
DU-145 prostate
  GI50: 1.95 µM
  TGI: 3.72 µM
RPMI-8226 leukemia
  GI50: 2.21 µM
  TGI: 5.02 µM
NCI-H226 lung
  GI50: 2.19 µM
  TGI: 8.84 µM
MOLT-4 leukemia
  GI50: 0.298 µM
  TGI: 1.07 µM
UO-31 renal
  GI50: 1.58 µM
  TGI: 3.04 µM
HS 578T breast
  GI50: 2.53 µM
  TGI: 6.79 µM
NCI/ADR-RES ovarian
  GI50: 2.32 µM
  TGI: 5.56 µM
HT29 colon
  GI50: 1.98 µM
  TGI: 3.76 µM
HL-60(TB) leukemia
  GI50: 1.32 µM
  TGI: 3.12 µM
A549 NSCLC
  GI50: 5.44 µM
  TGI: 21.9 µM
CCRF-CEM leukemia
  GI50: 0.194 µM
  TGI: 0.482 µM
U251 CNS
  GI50: 1.58 µM
  TGI: 3.14 µM
SF-295 CNS
  GI50: 4.58 µM
  TGI: 13.2 µM
RXF 393 renal
  GI50: 1.74 µM
  TGI: 3.53 µM
NCI-H460 lung
  GI50: 3.05 µM
  TGI: 9.66 µM
HCT-15 colon
  GI50: 1.5 µM
  TGI: 3.31 µM
HOP-62 NSCLC
  GI50: 1.95 µM
  TGI: 4.04 µM
IGROV1 ovarian
  GI50: 0.12 µM
  TGI: 0.288 µM
SN12C renal
  GI50: 1.21 µM
  TGI: 2.8 µM
SW-620 colon
  GI50: 1.77 µM
  TGI: 3.65 µM
PC-3 prostate
  GI50: 1.8 µM
  TGI: 3.56 µM
HCT-116 colon
  GI50: 1.65 µM
  TGI: 3.07 µM
KM12 colon
  GI50: 2.13 µM
  TGI: 4.29 µM
OVCAR-5 ovarian
  GI50: 3.39 µM
  TGI: 10.4 µM
786-0 renal
  GI50: 1.8 µM
  TGI: 3.37 µM
HCC-2998 colon
  GI50: 3.53 µM
  TGI: 11.5 µM
SF-539 CNS
  GI50: 1.78 µM
  TGI: 3.22 µM
NCI-H522 lung
  GI50: 0.151 µM
  TGI: 0.331 µM
OVCAR-3 ovarian
  GI50: 1.87 µM
  TGI: 3.44 µM
NCI-H23 lung
  GI50: 0.929 µM
  TGI: 2.74 µM
MDA-MB-231 breast
  GI50: 1.66 µM
  TGI: 3.29 µM
OVCAR-8 ovarian
  GI50: 1.55 µM
  TGI: 4.52 µM
M14 melanoma
  GI50: 1.59 µM
  TGI: 3.2 µM
SNB-75 CNS
  GI50: 1.64 µM
  TGI: 3.09 µM
K-562 leukemia
  GI50: 0.938 µM
  TGI: 3.95 µM
A498 renal
  GI50: 12.4 µM
  TGI: 26.1 µM
ACHN renal
  GI50: 1.65 µM
  TGI: 3.08 µM
SR leukemia
  GI50: 0.204 µM
  TGI: 0.64 µM
MALME-3M melanoma
  GI50: 0.213 µM
  TGI: 0.494 µM

## COc1cc2nc(-c3cccs3)oc(=O)c2cc1OC
SF-268 CNS
  TGI: > 100 µM
OVCAR-4 ovarian
  TGI: > 100 µM
COLO 205 colon
  TGI: > 100 µM
TK-10 renal
  TGI: > 100 µM
SK-OV-3 ovarian
  TGI: > 100 µM
UACC-62 melanoma
  TGI: > 100 µM
T-47D breast
  TGI: > 100 µM
LOX IMVI melanoma
  TGI: > 100 µM
SK-MEL-2 melanoma
  TGI: > 100 µM
SK-MEL-5 melanoma
  TGI: > 100 µM
BT-549 breast
  TGI: > 100 µM
SK-MEL-28 melanoma
  TGI: > 100 µM
SNB-19 CNS
  TGI: > 100 µM
CAKI-1 renal
  TGI: > 100 µM
MDA-MB-435
  TGI: > 100 µM
UACC-257 melanoma
  TGI: > 100 µM
MCF7 breast
  TGI: > 100 µM
DU-145 prostate
  TGI: > 100 µM
RPMI-8226 leukemia
  TGI: > 100 µM
NCI-H226 lung
  TGI: > 100 µM
MOLT-4 leukemia
  TGI: > 100 µM
UO-31 renal
  TGI: > 100 µM
HS 578T breast
  TGI: > 100 µM
NCI/ADR-RES ovarian
  TGI: > 100 µM
HT29 colon
  TGI: > 100 µM
HL-60(TB) leukemia
  TGI: > 100 µM
A549 NSCLC
  TGI: > 100 µM
CCRF-CEM leukemia
  TGI: > 100 µM
U251 CNS
  TGI: > 100 µM
SF-295 CNS
  TGI: > 100 µM
RXF 393 renal
  TGI: > 100 µM
NCI-H460 lung
  TGI: > 100 µM
HCT-15 colon
  TGI: > 100 µM
HOP-62 NSCLC
  TGI: 69.1 µM
IGROV1 ovarian
  TGI: > 100 µM
SN12C renal
  TGI: > 100 µM
SW-620 colon
  TGI: > 100 µM
PC-3 prostate
  TGI: > 100 µM
HCT-116 colon
  TGI: > 100 µM
KM12 colon
  TGI: > 100 µM
OVCAR-5 ovarian
  TGI: > 100 µM
786-0 renal
  TGI: > 100 µM
SF-539 CNS
  TGI: > 100 µM
NCI-H522 lung
  TGI: > 100 µM
OVCAR-3 ovarian
  TGI: > 100 µM
EKVX NSCLC
  TGI: > 100 µM
NCI-H23 lung
  TGI: > 100 µM
MDA-MB-231 breast
  TGI: > 100 µM
OVCAR-8 ovarian
  TGI: > 100 µM
M14 melanoma
  TGI: > 100 µM
SNB-75 CNS
  TGI: > 100 µM
K-562 leukemia
  TGI: > 100 µM
HOP-92 NSCLC
  TGI: > 100 µM
A498 renal
  TGI: > 100 µM
ACHN renal
  TGI: > 100 µM
SR leukemia
  TGI: > 100 µM
MALME-3M melanoma
  TGI: > 100 µM
